From ChEMBL document CHEMBL1150488 (1993)

Key:
Assay type in all cases: functional
[1] = tested on: Clostridium perfringens; test: The compound (1 mg/mL, 80 microL/12.7 mm) was tested for zone of inhibition against Clostridium perfringens UC6509 (22H -, H: Hazy zone)
[2] = tested on: Staphylococcus epidermidis; test: Tested for zone of inhibition against Staphylococcus epidermidis UC719 (1 mg/mL, 80 microL/6.5 mm)
[3] = tested on: Staphylococcus aureus; test: Tested for zone of inhibition against Staphylococcus aureus UC3665 (1 mg/mL, 80 microL/12.7 mm)
[4] = tested on: Bacteroides fragilis; test: Tested for zone of inhibition against Bacteroides fragilis UC6513 (1 mg/mL, 80 microL/12.7 mm)
[5] = tested on: Staphylococcus aureus; test: Tested for zone of inhibition against Staphylococcus aureus UC6685 (1 mg/mL, 80 microL/6.5 mm)
[6] = tested on: Staphylococcus aureus; test: The compound (1 mg/mL, 80 microL/6.5 mm) was tested for zone of inhibition against Staphylococcus aureus UC6685 (38H -, H: Hazy zone)
[7] = tested on: Clostridium perfringens; test: Tested for zone of inhibition against Clostridium perfringens UC6509

Structure (SMILES): CC(=O)OC/C(C)=C1\CN(C(C)=O)C1=O
- Diameter of inhibition zone [1]: 22 mm
- Diameter of inhibition zone [2]: 0 mm
- Diameter of inhibition zone [3]: 0 mm
- Diameter of inhibition zone [4]: 22 mm
- Diameter of inhibition zone [5]: 0 mm

Structure (SMILES): CCCCCC(=O)N1C[C@H]([C@H](C)CF)C1=O
- Diameter of inhibition zone [2]: 31 mm
- Diameter of inhibition zone [3]: 48 mm
- Diameter of inhibition zone [6]: 38 mm
- Diameter of inhibition zone [7]: 79 mm
